# According to article PMC2651632 (Biochemistry, 2008):
# pEC50: −log10 of the molar value.
# Molecular target: T1, reconstituted ATase (ATN6-ATC3 complex) (Escherichia coli, UniProt P30870)
# T1 sequence (P30870 1-608): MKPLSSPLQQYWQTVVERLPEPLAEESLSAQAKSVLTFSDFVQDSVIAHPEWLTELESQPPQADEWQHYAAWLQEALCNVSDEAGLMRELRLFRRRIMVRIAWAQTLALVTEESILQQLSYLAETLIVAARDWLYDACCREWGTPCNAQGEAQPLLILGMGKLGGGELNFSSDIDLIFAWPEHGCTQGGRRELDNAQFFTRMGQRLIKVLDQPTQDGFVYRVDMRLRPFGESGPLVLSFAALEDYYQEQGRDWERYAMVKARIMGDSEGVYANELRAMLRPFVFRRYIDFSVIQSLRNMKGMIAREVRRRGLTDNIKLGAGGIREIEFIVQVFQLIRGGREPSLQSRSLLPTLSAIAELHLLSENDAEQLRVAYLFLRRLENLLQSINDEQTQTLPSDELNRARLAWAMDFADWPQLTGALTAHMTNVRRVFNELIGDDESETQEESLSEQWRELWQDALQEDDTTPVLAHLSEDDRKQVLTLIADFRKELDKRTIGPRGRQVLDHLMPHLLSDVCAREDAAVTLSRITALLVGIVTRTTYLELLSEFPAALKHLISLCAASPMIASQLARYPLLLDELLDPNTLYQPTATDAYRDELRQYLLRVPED
# T1 sequence (P30870 609-946 partner): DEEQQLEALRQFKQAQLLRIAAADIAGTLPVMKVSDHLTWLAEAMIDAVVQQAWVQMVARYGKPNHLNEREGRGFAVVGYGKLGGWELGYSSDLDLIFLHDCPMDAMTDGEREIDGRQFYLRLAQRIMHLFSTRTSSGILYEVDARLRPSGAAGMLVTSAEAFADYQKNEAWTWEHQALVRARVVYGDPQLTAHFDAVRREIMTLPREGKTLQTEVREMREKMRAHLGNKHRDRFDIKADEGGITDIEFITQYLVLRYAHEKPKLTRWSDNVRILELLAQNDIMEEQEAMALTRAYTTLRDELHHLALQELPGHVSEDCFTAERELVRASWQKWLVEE
# Assay: initial rate of GS adenylylation, […] incorporation from [alpha-32P]ATP
# Format: biochemical
compound,measurement,value
NC(=O)CC[C@H](N)C(=O)O [glutamine],pEC50,~2.15
